According to patent publication US8372973B2, “Prokineticin 1 receptor antagonists” (Janssen Pharmaceutica N.V., priority 2005, dated 2013):
“And” between values parts separate entries of the source, which are not always exact repeats. Identical values can stand only once. “Also recorded” adds a separate entry of the source. Like-named read-outs stand apart in the source and are kept apart here.

B1: PK1: Recombinant human prokineticin-1 from HEK 293 cells, FLAG epitope cleaved; mixture of full-length ligand and four C-terminal residue truncated product (protein)
chain: AVITGACERDVQCGAGTCCAISLWLRGLRMCTPLGREGEECHPGSHKVPFFRKRKHHTCPCLPNLLCSRFPDGRYRCSMDLKNINF
modifications: mixture with C-terminal truncated product; Recombinant N-terminal FLAG-tagged human prokineticin-1 after enterokinase cleavage of Flag-tag

Assays:
[1] = molecular target: T1, PK1 receptor (Rattus norvegicus, UniProt Q8R416); test: Suppression of PK1-evoked increase in Isc in isolated rat ileum mucosa, Ussing-type chambers; details: 1 μM test compound, 15 min; PK1 10 and 100 nM cumulative
T1 construct: The PK1 evoked increase in Isc requires the presence of endogenous PK1 receptors; from tissue; host or cells: isolated rat ileum mucosa
T1 sequence (Q8R416 whole entry): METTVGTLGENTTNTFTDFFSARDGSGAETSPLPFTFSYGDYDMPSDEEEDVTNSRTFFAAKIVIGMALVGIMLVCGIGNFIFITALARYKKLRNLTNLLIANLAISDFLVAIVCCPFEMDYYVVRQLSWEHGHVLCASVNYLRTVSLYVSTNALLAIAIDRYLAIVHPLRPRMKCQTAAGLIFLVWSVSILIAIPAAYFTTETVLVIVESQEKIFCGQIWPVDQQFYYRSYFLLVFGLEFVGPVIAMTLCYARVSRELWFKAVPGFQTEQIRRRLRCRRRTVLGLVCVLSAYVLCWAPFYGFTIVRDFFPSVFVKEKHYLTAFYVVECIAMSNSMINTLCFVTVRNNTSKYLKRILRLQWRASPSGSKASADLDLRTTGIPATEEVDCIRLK
Method: Methodology. The basic methodology for Ussing-type ion flux chambers used in these studies was the same as that described in detail above with the following modifications to the experimental protocol. […] The responses to two sequential EFS were used to gauge tissue viability and comparability of the responses of individual tissues from each rat and between rats. Tissue conductance was measured at periodic intervals as changes in the amplitudes of brief short-circuit current responses evoked by application of 1 mV amplitude bi-polar pulses from a pulse generator using Ohm's Law. Three to four tissues from each rat were studied. The tissues from a given animal were grouped and assigned accordingly: one control tissue which received only vehicle followed by two consecutive doses of PK-1 ligand added in a cumulative fashion to the basolateral surface of the tissue; the remaining two to three tissues from the same animal were assigned to be exposed to a given PK-1 receptor antagonist (e.g., 3-4 tissues from 1 rat: Control, Antagonist1, Antagonist2, and/or Antagonist3). Test compound was added to the basolateral tissue side reservoir at a final concentration of 1 μM and allowed a 15 minute incubation period prior to challenge with the PK1 peptide. […]

[2] = test system: Cholera toxin stimulated gut secretion; design: species or system rat
[3] = test system: pro-secretory effect of carbachol; test: Selectivity test against carbachol-evoked secretion in rat ileum mucosa, Ussing-type chambers
[4] = molecular target: T2, GPR73 (prokineticin 1 receptor) (Homo sapiens, UniProt Q8TCW9); test: PK1 functional assay: Ca2+ mobilization on the FLIPR; assay type: cell-based; details: for inhibition at 10 µM: read-out: Ca^2+ Mobilization % Inh @10 μM; for IC50: HEK 293 GPR73 expressing cells, PK1 ligand preparation at its EC50, read-out: Ca^2+ Mobilization IC50
T2 construct: expressed in transfected cells; host or cells: HEK 293
T2 sequence (Q8TCW9 whole entry, species assumed): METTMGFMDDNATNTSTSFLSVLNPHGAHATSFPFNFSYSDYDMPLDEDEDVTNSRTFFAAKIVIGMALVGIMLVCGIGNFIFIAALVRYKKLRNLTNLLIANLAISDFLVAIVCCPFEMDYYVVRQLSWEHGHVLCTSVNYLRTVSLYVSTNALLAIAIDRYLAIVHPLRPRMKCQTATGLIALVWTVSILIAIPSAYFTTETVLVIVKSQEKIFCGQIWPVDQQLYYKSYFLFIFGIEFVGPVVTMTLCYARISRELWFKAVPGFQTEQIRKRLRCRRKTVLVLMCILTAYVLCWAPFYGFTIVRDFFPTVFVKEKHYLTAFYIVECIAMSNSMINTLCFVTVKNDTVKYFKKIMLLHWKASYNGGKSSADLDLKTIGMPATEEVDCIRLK
Method: At a time of 24 h prior to running the assay, in cell culture media (DMEM containing high Glucose and L-glutamine, 10% FBS, 1% Pen/Streptomycin, 1% Sodium Pyruvate, 20 mM HEPES, Zeocin 200 mg/L), […] of 1.3*10^6/ml HEK 293 GPR73 (prokineticin 1 receptor) expressing cells were plated in a 96 well poly-d-lysine coated plate (Costar), and incubated at 37° C. and 5% CO2. On the day in which the assay was run, the media was removed and […] of 5× Calcium Plus Dye (Molecular Devices) which was previously resuspended with 200 mL of assay buffer [HBSS w/Ca^2+ and Mg^2+ w/o phenol red, 20 mM HEPES, 0.1% BSA, 10 mL probenecid (710 mg probenecid in 5 mL of 1N NaOH, to which was then added 5 mL HBSS containing 20 mM HEPES)] was added to each well of the 96-well plate. The plate was incubated at 37° C. and 5% CO2 for 30 min in dark. The plate was removed and allowed to reach RT for 15 min in the dark. The assay was then run on the FLIPR. In Brief: base line read for 1 min, compound added (25 μL) and incubated for 4 min, 15 seconds, PK1 ligand preparation added (25 μL) for a final concentration of a previously determined EC50 and fluorescence was counted for 1 min, 45 seconds. Baseline is described as the amount of relative fluorescence read when buffer alone is added to cells. Baseline was subtracted from all wells. Percent of control was calculated as follows:
(Baseline subtracted well value is divided by baseline subtracted max value)*100. Percent inhibition is 100 minus the percent of control value.
The IC50 is defined as the amount of a given compound required to inhibit 50% of the maximum signal that is generated by the concentration of PK1 preparation used in our assay. IC50 values were calculated using GraphPad Prism.

[5] = test system: ileum mucosal tissues from PK1 receptor knock-out mice; test: PK1 effect on Isc in ileum mucosal tissues from PK1 receptor knock-out mice; details: exogenous PK1 peptide

Row | Molecule | inhibition at 10 µM ([4]; @10 μM compound) [%] | IC50 [4] | further results
1 | COc1ccc(Cn2c(NCc3cccnc3N)nc(=O)n(Cc3ccc(OC)cc3)c2=O)cc1 [Cpd 3, 6-[(2-Amino-pyridin-3-ylmethyl)-amino]-1,3-bis-(4-methoxy-benzyl)-1H-[1,3,5]triazine-2,4-dione] | – | – | suppression of the PK1 evoked increase in Isc [1]: suppresses; also recorded: significant surmountable antagonism; suppression of Cholera toxin-evoked stimulation of gut secretion (in words) [2]: suppresses; suppression of the sustained increase in baseline Isc evoked by Cholera toxin [2]: 50-60%; suppression of the pro-secretory effect of carbachol (unrelated secretagogue) [3]: without inhibiting; suppression of the pro-secretory effect of carbachol (unrelated secretagogue) ([3]; two ascending cumulative carbachol concentrations, serosal side): without inhibiting; also recorded: failed to suppress
2 | COc1ccc(Cn2c(NCc3cccnc3)nc(=O)n(Cc3ccc(OC)cc3)c2=O)cc1 [Cpd 40] | 83 | 557 nM | –
3 | COc1ccc(Cn2c(=O)nc(NCc3cnc(C)cc3C)n(Cc3ccc(OC(F)F)cc3)c2=O)cc1 [Cpd 96] | 92 | – | –
4 | COc1ccc(Cn2c(=O)nc(NCc3cnc(C)cc3C)n(Cc3ccccc3OC)c2=O)cc1 [Cpd 106] | 99 | 25 nM and 74 nM | Ca^2+ Mobilization % Inh @10 μM ([4]; @10 μM compound, 10 µM): 101%
5 | COc1ccccc1Cn1c(=O)nc(NCc2cnc(C)cc2C)n(Cc2ccc(OC(F)F)cc2)c1=O [Cpd 193] | 39 | > 10000 nM | –
6 | B1 | – | – | change in Isc compared to wild-type littermates [5]: failed to elicit a significant change
